# Entries after “also recorded” stand apart in the source; their conditions may differ. d = 2'-deoxy (DNA); r = 2'-OH (RNA)
# Tests used:
# H1299 p53-/- cells = assay: Flow cytometric analysis of apoptosis (sub-G1) and cell cycle in H1299 cells inducibly expressing 72R or 72P wild-type p53; type: cell-based, Human; conditions: for apoptosis and cell cycle effect on induction of 72P p53: H1299 induced to express 72P wild-type p53; for apoptosis and cell cycle effect on induction of 72P p53 / apoptosis and cell cycle effect on induction of 72R p53: cisplatin 1 μg/ml, taxol 500 ng/ml, flow cytometry after 24 hours; for apoptosis and cell cycle effect on induction of 72R p53: H1299 induced to express 72R wild-type p53; for difference in apoptosis between 72R and 72P: H1299 clones, doxorubicin 1 μg/ml; for difference in apoptosis between 72R and 72P / apoptosis (sub-G1 fraction), 72R versus 72P expressing cells: camptothecin 5 μM, 24 hours; for apoptosis (sub-G1 fraction), 72R versus 72P expressing cells: induced H1299, 5-FU 50 μg/ml, cisplatin, taxol, etoposide, doxorubicin
# Source text: 72R and 72P wild-type p53 plasmids were constructed by subcloning the inserts from pArgSP53 and pProSP53 (See Matlashewski, et al., Mol. Cell. Biol., 7:961-963 (1987), incorporated by reference) into commercially available pTRE, resulting in pTRE 72R p53 and pTRE 72P p53 plasmids. Human H1299 p53−/− cells, which were maintained in DMEM+10% fetal bovine serum, were transfected with the pTRE 72R p53 and pTRE 72P p53 plasmids in accordance with standard procedures, resulting in H1299 cells lines which inducibly express 72R or 72P p53 protein. These cell lines were grown in DMEM 10% FCS supplemented with 0.5 mg/ml G418 and 0.5 μg/ml puromycin. Expression of 72R or 72P wild-type p53 was induced in H1299 cells by doxycycline or non-induced. […] Control cells were not exposed to drugs. Flow cytometric analysis was then performed after 24 hours as described in Bergamaschi et al., Cancer Cell, 3:387-402 (2003), incorporated by reference. A minimum of six independent 72R-inducible and 72P-inducible clones were analyzed, to obviate the effect of clonal variation.
# Further tests examined the cellular responses to the anticancer agents camptothecin and 5-fluorouracil (FU). H1299 cells were induced to express equal levels of 72R or 72P wild-type p53, as described supra, or not induced. […] The cells were then exposed to camptothecin (5 μM) or 5-FU (50 μg/ml). Flow cytometric analysis was performed after 24 hours.
# Three experiments were conducted, each analyzing two independent clones of 72R-expressing H1299 cells and two independent clones of 72P-expressing H1299 cells. […] Control cells were not exposed to drugs, and control cells for camptothecin and 5-FU received the drug vehicle only. After 24 hours, apoptosis was determined by flow cytometry as previously described.
# H1299 cells = assay: Colony-survival assays of H1299 cells expressing p53 variants; type: cell-based, Human
# Experimental: The cytotoxicity of anticancer agents was determined in colony-survival assays of H1299 cells using standard protocols, following Bergamaschi, et al., supra, and as per the earlier examples. Briefly, H1299 cells were treated with doxycycline to induce p53 and plated at multiple densities. […] After drug exposure, cells were re-plated in drug free medium and grown until the appearance of visible colonies. Each drug exposure was done in triplicate in at least three experiments.
# Further tests were performed to see if 46S influences cellular sensitivity to anticancer drugs in 72R-expressing cells.
# p53 [1] = assay: Western Blot analysis of p53 expression in transfected H1299 cells; type: cell-based, Human; conditions: cisplatin 1 μg/ml, 24 hours; each of the four variants 46A/46S 72R/72P
# Experimental: H1299 cells were cotransfected with pcDNA3 CD20 and plasmids expressing 46A 72R, 46A 72P, 46S 72R, or 46S 72P wild-type p53 or with an empty vector (no p53, as a control), as described supra. […] After 24 hours, the cells were analyzed by flow cytometry. Western Blot analysis of p53 expression was also performed.
# p73 = assay: Western blotting of endogenous p73 steady state levels following drug treatment; type: cell-based; conditions: 24 hours; for levels of p73 in HN30: head and neck squamous cell line HN30
# Experimental: The squamous carcinoma cell lines (“SCC”) tested included cells of the head and neck, cervix, vulva, and immortalized skin […]. […] The cells were exposed to the drugs for 24 hours, after which they were harvested in a lysis buffer (50 mM Tris, 250 mM NaCl, 0.1% Nonidet NP-40, 5 mM EDTA, 1 mM PMSF, with a protease inhibitor cocktail). […] The immunoprecipitates were then resolved, on 10% polyacrylamide gels, and immunoblotted with the antibody, and a secondary anti-mouse light chain antibody conjugated to horseradish peroxidase, which was then visualized using standard methods.
# Saos-2 cells [2] = assay: Apoptosis (sub-G1) in Saos-2 cells expressing dominant-negative p73 inhibitors; type: cell-based; conditions: for sensitivity to apoptosis of Saos-2 cells expressing p73Δ2 and p73DD: dominant-negative p73 inhibitors; for sensitivity to apoptosis of Saos-2 lines expressing p73DD (L371P): inactive point mutation
# Experimental: The Saos-2 cells were maintained, as described, supra, and cell lines stably expressing the dominant negative inhibitors were generated by transfection, and then cultivation in the presence of 400 μg/ml of G418. Isolated colonies were ring cloned, and then the expression of transfected sequences was confirmed.
# The cells, when in exponential growth phase, received 10 μg of a plasmid encoding p73, and 3 μg of pcDNA3CD20. Twenty-four hours after transfection, cells were harvested, stained with propidiumiodide, and apoptosis was determined as percentage of sub-G1 cells.
# In brief, this was determined by seeding 10^2-10^6 cells, in quadruplicate, onto 9 cm tissue culture dishes, and were treated, 24 hours later, for 2 hours, with cytotoxic drugs at various concentrations. Following drug exposure, the cells were grown until visible colonies appeared. They were then fixed in methanol, and stained with Giemsa. Survival was calculated relative to the cells receiving the drug vehicle alone.
# p53 [3] = assay: siRNA and drug effect on p53 levels in squamous carcinoma cell lines (Western blotting); type: cell-based; conditions: head and neck squamous cells; siRNA 100 nM; doxorubicin 1 μg/ml, taxol 500 ng/ml, cisplatin 10 μg/ml; 24 hours
# Experimental: After 24 hours, cell lysates were prepared and analyzed via Western blotting.
# p53 [4] = assay: siRNA effect on steady state levels of p53 mutant in cells expressing 72P 173L or 72R 173L; type: cell-based; conditions: siRNA 10-100 μM as printed
# Experimental: To investigate this small inhibitory RNA (“siRNA”) oligonucleotides were used. The sequences:
# The siRNA oligos were transfected into cells, in amounts ranging from 10-100 μM, using commercially available reagents. The siRNA was introduced into cells expressing either the 72P 173L mutant or the 72R173L mutant. Both were shown, supra, to inhibit p73.
# p53-p73 complexes = p53-p73 complexes and p73 in Hacat cells after siRNA and drug treatment; type: cell-based; conditions: 100 nM siRNA
# Experimental: As a follow up to the work, supra, experiments were carried out to determine if the siRNA influenced association of the mutant p53 molecules with p73. […] Cell lysates were prepared after 24 hours, and p53-p73 complexes were analyzed, as described supra.
# Hacat cells = assay: Drug-induced apoptosis after p53 siRNA; type: cell-based; conditions: 100 nM siRNA, drugs 48 hours later
# Saos-2 cells [5] = type: cell-based
# Experimental: The Saos-2 cells which had been engineered to stably express 72R and 72P mutants were then tested, in assays designed to determine whether p53 siRNA impacted drug resistance. Saos-2 cells which expressed 72R173Lp53 were treated with 100 nM of siRNA for p53, or with the same amount of PGL siRNA. […] Survival was assessed via colony forming ability.
Compound,apoptosis and cell cycle effect on induction of 72P p53 (H1299 p53-/- cells),apoptosis and cell cycle effect on induction of 72R p53 (H1299 p53-/- cells),sensitivity of cells expressing 46A 72P p53 versus 46S 72P p53 (H1299 cells),levels of p73 in HN30 (p73),sensitivity to apoptosis of Saos-2 cells expressing p73Δ2 and p73DD (Saos-2 cells [2]),sensitivity to apoptosis of Saos-2 lines expressing p73DD (L371P) (Saos-2 cells [2]),p53 levels (p53 [3]),difference in apoptosis between 72R and 72P (H1299 p53-/- cells),"apoptosis (sub-G1 fraction), 72R versus 72P expressing cells (H1299 p53-/- cells)",further results
N.N.[Cl][Pt][Cl] [cisplatin],minimal apoptosis but predominantly G1 arrest,increased sub-G1 fraction and a smaller G1 peak,similar,increased the levels of p73,less sensitive to apoptosis,sensitivity similar to control Saos-2 cells,unaffected,,,levels of p53 protein after treatment (p53 [1]): increased
COc1cccc2c1C(=O)c1c(O)c3c(c(O)c1C2=O)C[C@@](O)(C(=O)CO)C[C@@H]3O[C@H]1C[C@H](N)[C@H](O)[C@H](C)O1 [doxorubicin],,,similar,increased the levels of p73,less sensitive to apoptosis,sensitivity similar to control Saos-2 cells,unaffected,eightfold,,"cytotoxic effect in cells expressing 46A 72R p53 relative to 46S 72R p53 (H1299 cells): diminished; p73 level, all cell lines (p73; 1 μg/ml doxorubicin, squamous carcinoma cell lines and Saos-2): increased p73 in all cell lines"
"O=c1[nH]cc(F)c(=O)[nH]1 [5-FU, 5-fluorouracil]",,,,,,,,,apoptosis was always higher in cells expressing the 72R p53 variant,
"p53 siRNA: small inhibitory RNA oligonucleotides, SEQ ID NO: 1 CUACUUCCUGAAAACAACG(d)TT and SEQ ID NO: 2 CGUUGUUUUCAGGAAGUAGd(TT) (chain 1 CUACUUCCUGAAAACAACGTT; chain 2 CGUUGUUUUCAGGAAGUAGTT; sugars from the 5' end r19 d2, backbone not given here)",,,,,,,reduced steady state levels of p53; also recorded: downregulated,,,"steady state levels of p53 polymorphic variants of the mutant (p53 [4]): dose dependent reduction; amount of p53 which associated with p73 (p53-p73 complexes): clear decrease; increase in p73 production associated with drug exposure (p53-p73 complexes): not affected; apoptosis after siRNA followed by anticancer drugs, compared to controls (Hacat cells): clear increase in apoptosis; effect of siRNA on drug sensitivity, 143L mutant (Saos-2 cells [5]; Saos-2): similarly small effect; sensitivity to cisplatin and doxyrubicin of cell lines expressing 175H, 179Y, 179R, 245S, 248W, 249S, 273C and 282W (Saos-2 cells [5]; both polymorphic forms): increased sensitivity"
CC(=O)O[C@H]1C(=O)[C@@]2(C)[C@H]([C@H](OC(=O)c3ccccc3)[C@]3(O)C[C@H](OC(=O)[C@H](O)[C@@H](NC(=O)c4ccccc4)c4ccccc4)C(C)=C1C3(C)C)[C@]1(OC(C)=O)CO[C@@H]1C[C@@H]2O [taxol],minimal apoptosis but predominantly G1 arrest,increased sub-G1 fraction and a smaller G1 peak,,increased the levels of p73,less sensitive to apoptosis,sensitivity similar to control Saos-2 cells,unaffected,,,
CC[C@@]1(O)C(=O)OCc2c1cc1n(c2=O)Cc2cc3ccccc3nc2-1 [camptothecin],,,,,,,,twofold,apoptosis was always higher in cells expressing the 72R p53 variant,

# Reference: patent US20050227918A1, “Method for assaying susceptibility to cancer therapy in a subject by assaying for tumors of P53” (priority 2004, published 2005)
